Tests used:
[1] = system: weed plants such as Digitaria sanguinalis, Echinochloa crus-galli, Setaria faberi, Setaria viridis, Sorghum halepense, Abutilon theophrasti, Amaranthum …; experiment: Pre-emergence effect on weeds (greenhouse pot test); assay type: in vivo, monocotyledonous and dicotyledonous weed plants; settings: application rate of 1 kg or less of active substance per hectare; scored visually after 3 to 4 weeks by comparison with untreated controls
Description: Seeds or rhizome pieces of monocotyledonous and dicotyledonous weed plants are placed in sandy loam soil in plastic pots and covered with soil. The compounds according to the invention which are formulated in the form of wettable powders or emulsion concentrates are then applied to the surface of the soil cover in the form of aqueous suspensions or emulsions at an application rate of 600 to 800 l of water/ha (converted), in various dosages.
After the treatment, the pots are placed in a greenhouse and kept under good growth conditions for the weeds. After the test plants have emerged, the damage to the plants or the negative effect on the emergence is scored visually after a test period of 3 to 4 weeks by comparison with untreated controls. As shown by the test results, compounds according to the invention have good herbicidal pre-emergence activity against a broad spectrum of weed grasses and broad-leafed weeds.

[2] = system: harmful plants such as Digitaria sanguinalis, Echinochloa crus-galli, Setaria faberi, Setaria viridis, Sorghum halepense, Abutilon theophrasti, Amaranthum …; experiment: Post-emergence effect on weeds (greenhouse pot test); assay type: in vivo, monocotyledonous and dicotyledonous weeds; settings: application rate of 1 kg and less of active substance per hectare; treated at three-leaf stage; scored visually after about 3 to 4 weeks by comparison with untreated controls
Protocol: Seeds or rhizome pieces of monocotyledonous and dicotyledonous weeds are placed in sandy loam soil in plastic pots, covered with soil and grown in a greenhouse under good growth conditions. Three weeks after sowing, the test plants are treated at the three-leaf stage. The compounds according to the invention which were formulated as wettable powders or emulsion concentrates are sprayed, at various dosages, onto the green parts of the plants at an application rate of 600 to 800 l of water/ha (converted). After the test plants have remained in the greenhouse for about 3 to 4 weeks under optimum growth conditions, the effect of the preparations is scored visually by comparison with untreated controls. The agents according to the invention also have good herbicidal activity post-emergence against a broad spectrum of economically important weed grasses and broad-leafed weeds.

Compound | herbicidal activity pre-emergence [1] | herbicidal activity post-emergence [2]
Cc1cc(N2CCC(Nc3nc(N)nc(C(C)F)n3)C2)ccc1F (centres unmarked) [Example E11] | very good herbicidal activity | very good herbicidal activity
Cc1cc(N2CCC(Nc3nc(N)nc(C(C)C)n3)C2)ccc1F (centres unmarked) [Example E12] | very good herbicidal activity | very good herbicidal activity
CC(C)(F)c1nc(N)nc(NC2CCN(c3cccc(F)c3)C2)n1 (centres unmarked) [Example E13] | very good herbicidal activity | very good herbicidal activity
CC(F)c1nc(N)nc(NC2CCN(c3cccc(F)c3)C2)n1 (centres unmarked) [Example E14] | very good herbicidal activity | very good herbicidal activity
CC(C)c1nc(N)nc(NC2CCN(c3cccc(F)c3)C2)n1 (centres unmarked) [Example E15] | very good herbicidal activity | very good herbicidal activity
CC(C)(F)c1nc(N)nc(NC2CCN(c3cccc(Cl)c3)C2)n1 (centres unmarked) [Example E16] | very good herbicidal activity | very good herbicidal activity
CC(F)c1nc(N)nc(NC2CCN(c3cccc(Cl)c3)C2)n1 (centres unmarked) [Example E17] | very good herbicidal activity | very good herbicidal activity
CC(C)c1nc(N)nc(NC2CCN(c3cccc(Cl)c3)C2)n1 (centres unmarked) [Example E18] | very good herbicidal activity | very good herbicidal activity
CC(C)(F)c1nc(N)nc(NC2CCN(c3cccc(C(F)(F)F)c3)C2)n1 (centres unmarked) [Example E19] | very good herbicidal activity | very good herbicidal activity
CC(F)c1nc(N)nc(NC2CCN(c3cccc(C(F)(F)F)c3)C2)n1 (centres unmarked) [Example E20] | very good herbicidal activity | very good herbicidal activity
CC(C)c1nc(N)nc(NC2CCN(c3cccc(C(F)(F)F)c3)C2)n1 (centres unmarked) [Example E21] | very good herbicidal activity | very good herbicidal activity
CC(C)(F)c1nc(N)nc(NC2CCN(c3cccc(OC(F)(F)F)c3)C2)n1 (centres unmarked) [Example E22] | very good herbicidal activity | very good herbicidal activity
CC(F)c1nc(N)nc(NC2CCN(c3cccc(OC(F)(F)F)c3)C2)n1 (centres unmarked) [Example E23] | very good herbicidal activity | very good herbicidal activity
CC(C)c1nc(N)nc(NC2CCN(c3cccc(OC(F)(F)F)c3)C2)n1 (centres unmarked) [Example E24] | very good herbicidal activity | very good herbicidal activity
Cc1cc(C)cc(N2CCC(Nc3nc(N)nc(C(C)(C)F)n3)C2)c1 (centres unmarked) [Example E25] | very good herbicidal activity | very good herbicidal activity
Cc1cc(C)cc(N2CCC(Nc3nc(N)nc(C(C)F)n3)C2)c1 (centres unmarked) [Example E26] | very good herbicidal activity | very good herbicidal activity
Cc1cc(C)cc(N2CCC(Nc3nc(N)nc(C(C)C)n3)C2)c1 (centres unmarked) [Example E27] | very good herbicidal activity | very good herbicidal activity
CN(c1nc(N)nc(C(C)(C)F)n1)C1CCN(c2cccc(C(F)(F)F)c2)C1 (centres unmarked) [Example E48] | very good herbicidal activity | very good herbicidal activity
CN(c1nc(N)nc(C(C)(C)F)n1)C1CCN(c2cccc(OC(F)(F)F)c2)C1 (centres unmarked) [Example E49] | very good herbicidal activity | very good herbicidal activity

Reference: patent US20030171218A1, “Substituted 3-heteroaryl(amino- or oxy)pyrrolidin-2-ones, their preparation and use as herbicides or plant growth regulators” (priority 2001, published 2003)
